{
  "source": "patent US9932352B2",
  "about": "“Compounds for the treatment of ischemia-reperfusion-related diseases” (MINERVA PATENTS S.A., priority 2012, dated 2018)",
  "key": {"TrkA receptor": {"target": "T1, TrkA receptor (Rattus norvegicus, UniProt P35739)", "T1 construct": "Autophosphorylation of the TrkA receptor on PC12 cells when incubated with NGF or with a mimetic; endogenous in cells; host or cells: PC12 rat pheochromocytoma cells", "T1 sequence (P35739 33-799)": "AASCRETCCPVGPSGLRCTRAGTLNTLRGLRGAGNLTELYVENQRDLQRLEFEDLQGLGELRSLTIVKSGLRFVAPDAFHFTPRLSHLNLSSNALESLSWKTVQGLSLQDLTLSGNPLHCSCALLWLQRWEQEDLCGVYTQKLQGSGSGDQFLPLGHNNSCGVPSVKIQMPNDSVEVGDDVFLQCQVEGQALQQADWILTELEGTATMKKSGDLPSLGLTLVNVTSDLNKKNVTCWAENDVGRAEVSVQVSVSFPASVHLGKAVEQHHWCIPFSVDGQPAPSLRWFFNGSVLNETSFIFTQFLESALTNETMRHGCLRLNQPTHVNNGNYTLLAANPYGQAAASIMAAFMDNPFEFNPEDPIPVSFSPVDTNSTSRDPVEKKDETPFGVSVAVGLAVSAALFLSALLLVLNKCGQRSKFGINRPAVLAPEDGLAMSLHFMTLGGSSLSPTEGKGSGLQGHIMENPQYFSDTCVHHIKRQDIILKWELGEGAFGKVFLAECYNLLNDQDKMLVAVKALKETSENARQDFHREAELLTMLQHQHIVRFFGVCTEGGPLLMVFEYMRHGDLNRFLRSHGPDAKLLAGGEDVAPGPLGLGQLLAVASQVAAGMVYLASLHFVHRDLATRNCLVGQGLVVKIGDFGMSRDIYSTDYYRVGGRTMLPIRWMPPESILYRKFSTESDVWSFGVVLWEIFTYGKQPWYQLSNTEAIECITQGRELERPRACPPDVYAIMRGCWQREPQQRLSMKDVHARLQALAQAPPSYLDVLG", "assay": "Autophosphorylation of the TrkA receptor in PC12 cells (Western blotting)", "assay_type": "cell-based", "settings": "serum-free 6 hours, NGF 10 ng/ml or compounds 10 μm, 20 minutes, WB, ratio to total TrkA", "protocol": "Cells of the continuous PC12 pheochromocytoma rat line were cultured at a concentration of 4×10^5/ml in RPMI 1640 medium, supplemented with 5% glutamine, antibiotics, and in the absence of serum, in 24-well plates for 6 hours. Subsequently, NGF at a final concentration of 10 ng/ml or alternatively the compounds of formula (I), at the final concentration of 10 μm, were added to these cultures. After 20 minutes, the cells were thus lysed in RIPA buffer (20 mM Tris-HCl, pH 7.5, 150 mM NaCl, 1 mM Na2 EDTA, 1 mM EGTA, 1% NP-40, 1% sodium deoxycholate, 25 mM sodium pyrophosphate, 1 mMβ-glycerophosphate, 1 mM Na3VO4, 1 μg/ml leupeptin) for biochemical analysis by means of Western blotting (WB) technique, using specific antibodies for the phosphorylated form of the tyrosines 490, 674/675 or 785.\nThe graphs show the phosphorylation values of the indicated tyrosines (Y490, Y674/675, Y785), expressed as the ratio of the intensities of the bands observed in WB, developed with the respective anti-phosphotyrosine antibodies, to the band relating to the total TrkA protein. It is clear that the mimetics very strongly induce the phosphorylation of Y490 and much less that of the other tyrosines."}, "Murine cardiomyocytes": {"test_system": "Murine cardiomyocytes", "assay": "Apoptosis induced by ROS after hypoxia/reperfusion, Annexin-V flow cytometry", "assay_type": "cell-based", "settings": "cells cultured in hypoxia, end of reperfusion period, vs controls"}, "p38 MAPK protein": {"test_system": "p38 MAPK protein", "assay": "Dephosphorylation of p38 MAPK protein in serum-deprived PC12 cells (Western blotting)", "assay_type": "cell-based, rat", "settings": "serum deprivation 6 hours, NGF 10 ng/ml or compounds 10 μm, 30 minutes, WB", "protocol": "PC12 cells were cultured in the absence of serum, exactly as described above in example 5, and treated for 30 minutes with NGF, at the final concentration of 10 ng/ml, or alternatively with the compounds of formula I, at the final concentration of 10 μm; the cells were subsequently lysed and analysed by WB, using antibodies specific for the phosphorylated form of the enzyme.\nA homogeneity control of protein load on gel, normalisation with β-actin is reported. (FIG. 3)."}, "MKP-1 protein": {"test_system": "MKP-1 protein", "assay": "Induction of MKP-1 protein expression in PC12 cells (Western blotting)", "assay_type": "cell-based, rat", "settings": "serum-free, NGF 10 ng/ml or compounds 10 μm, 30 minutes, WB densitometry", "protocol": "PC12 cells were cultured in the absence of serum, exactly as described above in example 5, and then treated for 30 minutes with NGF, at the final concentration of 10 ng/ml, or alternatively with the compounds of formula (I), at the final concentration of 10 μm; subsequently, the cells were lysed, and analysed by WB, using antibodies specific for the MKP-1 protein."}},
  "data": [
    {"substance": "NGF: recombinant human NGF, the native neurotrophin used as comparator at 10 ng/ml", "values": [
      {"measurement": "phosphorylation of TrkA tyrosines 490, 674/675, 785", "setting": "TrkA receptor", "value": "invariably induced the phosphorylation of all tyrosines"},
      {"measurement": "percentage of apoptotic cells (Annexin-V positive)", "setting": "Murine cardiomyocytes", "value": "much lower percentage of apoptotic cells than the controls"},
      {"measurement": "dephosphorylation of p38 MAPK", "setting": "p38 MAPK protein", "value": "marked dephosphorylation of p38 MAPK"},
      {"measurement": "MKP-1 protein levels (ratio MKP1 band to β-actin)", "setting": "MKP-1 protein", "value": "significantly higher than the control"}
    ]}
  ]
}
